Data reported in patent publication US11753407B2, “Compounds for treating spinal muscular atrophy” (PTC Therapeutics, Inc., priority 2012, dated 2023).

What was measured:
[1] = system: Smn protein in SMA patient fibroblast cells (GM03813); test: Smn protein assay in cultured cells (SMN HTRF); format: cell-based, human; settings: SMA patient fibroblast cells, 48 hours; for maximum fold (Fold) increase of Smn protein: 7-point concentration data, fold relative to vehicle control; for EC1.5x for Smn protein expression: 7-point concentration curve, SMN HTRF, concentration producing 1.5 times Smn protein vs DMSO vehicle control
Summary of the method: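 Smn protein abundance in treated SMA fibroblasts was measured by HTRF after 48 h compound exposure. The reported EC1.5× is the concentration producing 1.5 times vehicle Smn levels.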

[2] = system: SMN2 minigene mRNA (SMN2-A minigene) in HEK293H cells; test: SMN2 minigene mRNA splicing RT-qPCR assay in cultured cells; format: cell-based, human; settings: Homo sapiens, HEK293-H; concentration increasing full length SMN2 mRNA 1.5-fold relative to vehicle-treated cells; HEK293H cells with SMN2-A minigene, 24 hours, 7-point concentration data; read-out: EC1.5x for production of full length SMN2 mRNA
Summary of the method: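 Potency reflects the concentration that lifts full-length SMN2 minigene mRNA 1.5-fold above vehicle in stably transfected HEK293H cells after 24 h of treatment. Transcript abundance came from RT-qPCR as (1+E)^−Ct, normalized to GAPDH; endogenous SMN1/SMN2 are not detected.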

Row | Structure (SMILES) | maximum fold (Fold) increase of Smn protein [1] | EC (1.5-fold increase) [2] [µM] | EC1.5x for Smn protein expression [1]
1 | COc1ccc(-c2cc(=O)n3cc(N4CCNC[C@H]4C)ccc3n2)cc1OC [Compound 321, 2-(3,4-dimethoxyphenyl)-7-[(2R)-2-methylpiperazin-1-yl]-4H-pyrido[1,2-a]pyrimidin-4-one] | *** (a fold increase between >1.35 and ≤1.5 is indicated by three stars (***)) | 1 to 3 | –
2 | Cc1nc2ccc(-c3cc(=O)n4cc(N5CCN(C)CC5)ccc4c3)cc2o1 [Compound 323, 2-(2-methyl-1,3-benzoxazol-6-yl)-7-(4-methylpiperazin-1-yl)-4H-quinolizin-4-one] | *** (a fold increase between >1.35 and ≤1.5 is indicated by three stars (***)) | 0.1 to 0.3 | ** (an EC1.5× between >1 μM and ≤3 μM is indicated by two stars (**))
3 | Cc1cn2nc(-c3cc(=O)n4cc(N5CCN[C@H](C)C5)ccc4n3)cc2c(C)n1 [Compound 335, 2-(4,6-dimethylpyrazolo[1,5-a]pyrazin-2-yl)-7-[(3R)-3-methylpiperazin-1-yl]-4H-pyrido[1,2-a]pyrimidin-4-one] | ***** (a fold increase >1.65 is indicated by five stars (*****)) | < 0.1 | **** (an EC1.5x≤0.3 μM is indicated by four stars (****))
4 | CCN1CCN(c2ccc3nc(-c4cc5c(C)nc(C)cn5n4)cc(=O)n3c2)C[C@H]1C [Compound 343, 2-(4,6-dimethylpyrazolo[1,5-a]pyrazin-2-yl)-7-[(3R)-4-ethyl-3-methylpiperazin-1-yl]-4H-pyrido[1,2-a]pyrimidin-4-one] | ***** (a fold increase >1.65 is indicated by five stars (*****)) | < 0.1 | **** (an EC1.5x≤0.3 μM is indicated by four stars (****))
5 | Cc1nc2cc(-c3cc(=O)n4cc(N5C[C@H]6CNC[C@H]6C5)ccc4n3)ccc2s1 [Compound 349, 7-[(3aR,6aS)-hexahydropyrrolo[3,4-c]pyrrol-2(1H)-yl]-2-(2-methyl-1,3-benzothiazol-5-yl)-4H-pyrido[1,2-a]pyrimidin-4-one] | *** (a fold increase between >1.35 and ≤1.5 is indicated by three stars (***)) | < 0.1 | ** (an EC1.5× between >1 μM and ≤3 μM is indicated by two stars (**))
6 | Cc1cn2nc(-c3cc(=O)n4cc(C5=CCN(C6CC6)CC5)ccc4n3)cc2c(C)n1 [Compound 354, 7-(1-cyclopropyl-1,2,3,6-tetrahydropyridin-4-yl)-2-(4,6-dimethylpyrazolo[1,5-a]pyrazin-2-yl)-4H-pyrido[1,2-a]pyrimidin-4-one] | **** (a fold increase between >1.5 and ≤1.65 is indicated by four stars (****)) | < 0.1 | *** (an EC1.5× between >0.3 μM and ≤1 μM is indicated by three stars (***))
7 | Cc1cn2nc(-c3cc(=O)n4cc(C5=CCN(C6COC6)CC5)ccc4n3)cc2c(C)n1 [Compound 357, 2-(4,6-dimethylpyrazolo[1,5-a]pyrazin-2-yl)-7-[1-(oxetan-3-yl)-1,2,3,6-tetrahydropyridin-4-yl]-4H-pyrido[1,2-a]pyrimidin-4-one] | **** (a fold increase between >1.5 and ≤1.65 is indicated by four stars (****)) | 0.1 to 0.3 | *** (an EC1.5× between >0.3 μM and ≤1 μM is indicated by three stars (***))
8 | CNC1CCN(c2cc(C)c3nc(-c4ccc(OC)c(OC)c4)cc(=O)n3c2)CC1 [Compound 358, 2-(3,4-dimethoxyphenyl)-9-methyl-7-[4-(methylamino)piperidin-1-yl]-4H-pyrido[1,2-a]pyrimidin-4-one] | *** (a fold increase between >1.35 and ≤1.5 is indicated by three stars (***)) | < 0.1 | ** (an EC1.5× between >1 μM and ≤3 μM is indicated by two stars (**))
9 | CCNC1CCN(c2cc(C)c3nc(-c4ccc(OC)c(OC)c4)cc(=O)n3c2)CC1 [Compound 359] | *** (a fold increase between >1.35 and ≤1.5 is indicated by three stars (***)) | < 0.1 | ** (an EC1.5× between >1 μM and ≤3 μM is indicated by two stars (**))
10 | COc1ccc(-c2cc(=O)n3cc(N4CCC(NC(C)C)CC4)ccc3n2)cc1OC [Compound 361, 2-(3,4-dimethoxyphenyl)-7-[4-(propan-2-ylamino)piperidin-1-yl]-4H-pyrido[1,2-a]pyrimidin-4-one] | *** (a fold increase between >1.35 and ≤1.5 is indicated by three stars (***)) | 0.1 to 0.3 | –
11 | Cc1cn2cc(-c3ccc4nc(C5=CCNCC5)cc(=O)n4c3)cc(F)c2n1 [Compound 372, 7-(8-fluoro-2-methylimidazo[1,2-a]pyridin-6-yl)-2-(1,2,3,6-tetrahydropyridin-4-yl)-4H-pyrido[1,2-a]pyrimidin-4-one] | ***** (a fold increase >1.65 is indicated by five stars (*****)) | < 0.1 | **** (an EC1.5x≤0.3 μM is indicated by four stars (****))
12 | CCN1CC=C(c2cc(C)c3nc(-c4ccc(OC)c(OC)c4)cc(=O)n3c2)CC1 [Compound 388, 2-(3,4-dimethoxyphenyl)-7-(1-ethyl-1,2,3,6-tetrahydropyridin-4-yl)-9-methyl-4H-pyrido[1,2-a]pyrimidin-4-one] | *** (a fold increase between >1.35 and ≤1.5 is indicated by three stars (***)) | < 0.1 | –
13 | COc1ccc(-c2cc(=O)n3cc(N4CCN5CCC[C@@H]5C4)cc(C)c3n2)cc1OC [Compound 414, 2-(3,4-dimethoxyphenyl)-7-[(8aR)-hexahydropyrrolo[1,2-a]pyrazin-2(1H)-yl]-9-methyl-4H-pyrido[1,2-a]pyrimidin-4-one] | ***** (a fold increase >1.65 is indicated by five stars (*****)) | < 0.1 | *** (an EC1.5× between >0.3 μM and ≤1 μM is indicated by three stars (***))
14 | Cc1nc2ccc(-c3cc(=O)n4cc(C5=CCNCC5)ncc4n3)cc2o1.Cl [Compound 421, 2-(2-methyl-1,3-benzoxazol-6-yl)-7-(1,2,3,6-tetrahydropyridin-4-yl)-4H-pyrazino[1,2-a]pyrimidin-4-one hydrochloride (1:1)] | *** (a fold increase between >1.35 and ≤1.5 is indicated by three stars (***)) | < 0.1 | –
15 | Cc1cn2nc(-c3cc(=O)n4cc(C5CCNCC5)ccc4n3)cc2c(C)n1 [Compound 452, 2-(4,6-dimethylpyrazolo[1,5-a]pyrazin-2-yl)-7-(piperidin-4-yl)-4H-pyrido[1,2-a]pyrimidin-4-one] | ***** (a fold increase >1.65 is indicated by five stars (*****)) | < 0.1 | **** (an EC1.5x≤0.3 μM is indicated by four stars (****))
16 | Cn1ncc2cc(-c3cc(=O)n4cc(C5=CCN(CCO)CC5)ccc4n3)ccc21 [Compound 471, 7-[1-(2-hydroxyethyl)-1,2,3,6-tetrahydropyridin-4-yl]-2-(1-methyl-1H-indazol-5-yl)-4H-pyrido[1,2-a]pyrimidin-4-one] | ***** (a fold increase >1.65 is indicated by five stars (*****)) | < 0.1 | **** (an EC1.5x≤0.3 μM is indicated by four stars (****))
17 | Cc1cn2nc(-c3cc(=O)n4cc(C5=CCN(C)CC5)cc(C)c4n3)cc2c(C)n1 [Compound 481, 2-(4,6-dimethylpyrazolo[1,5-a]pyrazin-2-yl)-9-methyl-7-(1-methyl-1,2,3,6-tetrahydropyridin-4-yl)-4H-pyrido[1,2-a]pyrimidin-4-one] | **** (a fold increase between >1.5 and ≤1.65 is indicated by four stars (****)) | < 0.1 | **** (an EC1.5x≤0.3 μM is indicated by four stars (****))
18 | CCN1CC=C(c2cc(C)c3nc(-c4cc5c(C)nc(C)cn5n4)cc(=O)n3c2)CC1 [Compound 482, 2-(4,6-dimethylpyrazolo[1,5-a]pyrazin-2-yl)-7-(1-ethyl-1,2,3,6-tetrahydropyridin-4-yl)-9-methyl-4H-pyrido[1,2-a]pyrimidin-4-one] | *** (a fold increase between >1.35 and ≤1.5 is indicated by three stars (***)) | < 0.1 | * (An EC1.5× for Smn protein expression between >3 μM and ≤10 μM is indicated by one star (*))
19 | Cc1cn2nc(-c3cc(=O)n4cc(C5=CCN(C6CC6)CC5)cc(C)c4n3)cc2c(C)n1 [Compound 483, 7-(1-cyclopropyl-1,2,3,6-tetrahydropyridin-4-yl)-2-(4,6-dimethylpyrazolo[1,5-a]pyrazin-2-yl)-9-methyl-4H-pyrido[1,2-a]pyrimidin-4-one] | ** (a fold increase between >1.2 and ≤1.35 is indicated by two stars (**)) | < 0.1 | –
20 | CCN1CC=C(c2ccc3nc(-c4cc5cnc(C)cn5n4)cc(=O)n3c2)CC1 [Compound 485, 7-(1-ethyl-1,2,3,6-tetrahydropyridin-4-yl)-2-(6-methylpyrazolo[1,5-a]pyrazin-2-yl)-4H-pyrido[1,2-a]pyrimidin-4-one] | ***** (a fold increase >1.65 is indicated by five stars (*****)) | < 0.1 | **** (an EC1.5x≤0.3 μM is indicated by four stars (****))
